Data: ChEMBL document CHEMBL4483862, “Open-source discovery of chemical leads for next-generation chemoprotective antimalarials” (2018)

System: Plasmodium berghei
Experiment: Luciferase/luciferin-expressing antifolate-resistant parasites were used to infect a culture of HepG2 cells that were pre-incubated with compounds. Infected hepatocytes emit light due to the luciferase reaction. Assay results are presented as the percent inhibition of light emission compared to control. […]
Format: functional
Conditions: sporozoite; for IC90: read-out: LUCIFERASE INFECTION ASSAY - IC90
[1] = read-out: LUCIFERASE INFECTION ASSAY - IC50

SMILES	IC90 [µM]	IC50 [1] [µM]	other results
COc1ccc(C=C(c2nc3ccccc3s2)c2nc3ccccc3s2)c(OC)c1OC	> 10	–	IC50 (HEPG2TOX_HILL_SLOPE 1.46, HEPG2TOX_R_SQUARED 0.78, PBLUC_HILL_SLOPE 2.12, PBLUC_R_SQUARED 0.479, read-out: LUCIFERASE INFECTION ASSAY - IC50): 7.05 µM
COc1ccc(CN2C(=O)N(CC(C)C)C3(CCN(Cc4ccc5c(c4)CCO5)CC3)C2=O)cc1	> 6.91	–	IC50 (HEPG2TOX_HILL_SLOPE 0.211, HEPG2TOX_R_SQUARED 0.0109, PBLUC_HILL_SLOPE 2.27, PBLUC_R_SQUARED 0.453, read-out: LUCIFERASE INFECTION ASSAY - IC50): 3.57 µM
O=C(CSc1cccc[n+]1[O-])N1N=C2/C(=C/c3ccccc3)CCCC2C1c1ccccc1 (configuration not stated)	6.17	–	IC50 (PBLUC_HILL_SLOPE 13.0, 1.48, PBLUC_R_SQUARED 0.151, 0.616, read-out: LUCIFERASE INFECTION ASSAY - IC50): 2.66 µM
O=C(NC(=S)NN(Cc1ccccc1)c1ccccc1)C12CC3CC(CC(C3)C1)C2	> 10	> 10	–
NC(=O)c1c(NC(=O)NCc2ccncc2)sc2c1CCCC2	> 9.99	> 9.99	–
CC(C)(C)c1ccc(CSc2nnc(-c3ccco3)n2-c2ccc(OCc3ccccc3)cc2)cc1	> 6.66	–	IC50 (FFLUC_HILL_SLOPE 93.6, FFLUC_R_SQUARED 0.0881, read-out: LUCIFERASE INFECTION ASSAY - IC50): > 6.66 µM
CNS(=O)(=O)c1ccc(CNc2ncnc3cc(-c4ccc(OC)cc4)sc23)s1	2.1	0.653	–
COc1ccc(S(=O)(=O)N2[C@@H]3CC[C@@H](C3)[C@H]2c2nc3c(OCC4CCOCC4)cccc3[nH]2)c(OC)c1	> 10	–	IC50 (PBLUC_HILL_SLOPE 2.43, PBLUC_R_SQUARED 0.162, read-out: LUCIFERASE INFECTION ASSAY - IC50): 8.16 µM
NC(=O)c1cccc(CNc2cnn(CCOc3ccc(Cl)cc3)c(=O)c2Cl)c1	> 10	2.11	–
COc1ccc(C2CCCCCN2C(=O)CCc2c(C)[nH]c(-c3ccccc3)nc2=O)cc1 (configuration not stated)	3.45	–	IC50 (PBLUC_HILL_SLOPE 57.7, PBLUC_R_SQUARED 0.487, read-out: LUCIFERASE INFECTION ASSAY - IC50): 3.32 µM
Cc1c(C)n(CCCO)c2ncn3nc(COc4ccccc4)nc3c12	0.36	–	IC50 (FFLUC_HILL_SLOPE 0.782, FFLUC_R_SQUARED 0.957, PBLUC_HILL_SLOPE 0.808, PBLUC_R_SQUARED 0.882, read-out: LUCIFERASE INFECTION ASSAY - IC50): 0.0238 µM
O=[N+]([O-])c1ccc(/C=[N+](\[O-])c2ccccc2)s1	> 13.3	> 13.3	–
Cn1c(CSc2cccs2)nnc1SCC(=O)Nc1ccc(F)cc1F	> 8	> 8	–
Cc1cc(N2CCN(C)CC2)ccc1NC(=O)c1cnc2c(c1)c(=O)n(C)c(=O)n2C	> 10	> 10	–
CC(=O)c1cccc(-c2cnc3cnc(-c4ccccc4Cl)cn23)c1	> 9.49	–	IC50 (PBLUC_HILL_SLOPE 3.8, PBLUC_R_SQUARED 0.614, read-out: LUCIFERASE INFECTION ASSAY - IC50): 6.8 µM
O=c1cc(CSc2nc3ccccc3c(=O)n2Cc2ccccc2)c2cc(O)c(O)cc2o1	> 10	–	IC50 (FFLUC_HILL_SLOPE 22, FFLUC_R_SQUARED 0.332, read-out: LUCIFERASE INFECTION ASSAY - IC50): > 10 µM
O=C(COC(=O)CCC1CCCC1)Nc1ncc(C(F)(F)F)cc1Cl	> 10	> 10	–
O=C(Cc1ccccc1)NCC(=O)N1CCOC(c2ccccc2)C1 (configuration not stated)	> 10	> 10	–
O=C(c1cccc(-c2nn[nH]n2)c1)N1CCC2CCCCC2C1 (configuration not stated)	> 10	> 10	–
CC(C)N1C(=O)/C(=N\NC(=S)NC2CCCCC2)c2ccccc21	> 10	–	IC50 (FFLUC_HILL_SLOPE 3.74, FFLUC_R_SQUARED 0.413, HEPG2TOX_HILL_SLOPE 6.6, HEPG2TOX_R_SQUARED 0.125, read-out: LUCIFERASE INFECTION ASSAY - IC50): > 10 µM
CCOc1cccc(-c2cn3c(-c4ccc(Cl)cc4)cnc3cn2)c1	> 9.43	8.98	–

SMILES	IC90 [µM]	IC50 [1] [µM]	other results
Cc1nn(-c2ccccn2)c2c1C(c1ccccc1Cl)C1=C(N2)c2ccccc2C1=O (configuration not stated)	> 10	–	IC50 (PBLUC_HILL_SLOPE 22.1, PBLUC_R_SQUARED 0.617, read-out: LUCIFERASE INFECTION ASSAY - IC50): 9.17 µM
COCCNc1nc(-c2c(-c3ccccc3)[nH]c3ccccc23)cs1	> 10	> 10	–
COc1cc2c(cc1OC)C(c1cccs1)N(CC(=O)Nc1cc([N+](=O)[O-])ccc1C)CC2 (configuration not stated)	2.62	–	IC50 (FFLUC_HILL_SLOPE 11.9, FFLUC_R_SQUARED 0.176, HEPG2TOX_HILL_SLOPE 0.633, HEPG2TOX_R_SQUARED 0.848, PBLUC_HILL_SLOPE 2.15, PBLUC_R_SQUARED 0.479, read-out: LUCIFERASE INFECTION ASSAY - IC50): 0.944 µM
CNc1nc2cnc(Nc3ccc(C(F)(F)F)cc3)cc2n1Cc1ccccc1	> 10	–	IC50 (HEPG2TOX_HILL_SLOPE 3.2, HEPG2TOX_R_SQUARED 0.033, read-out: LUCIFERASE INFECTION ASSAY - IC50): > 10 µM
CN(C)c1cccc(-c2cnc3cnc(-c4cccc(NS(C)(=O)=O)c4)cn23)c1	> 8.1	–	IC50 (HEPG2TOX_HILL_SLOPE 7.18, HEPG2TOX_R_SQUARED 0.638, PBLUC_HILL_SLOPE 3.24, PBLUC_R_SQUARED 0.204, read-out: LUCIFERASE INFECTION ASSAY - IC50): 4.82 µM
CN(C)CCCNC(=O)c1ccc(-c2cn3c(-c4ccc(Cl)cc4)cnc3cn2)cc1	3.76	–	IC50 (HEPG2TOX_HILL_SLOPE 3.47, HEPG2TOX_R_SQUARED 0.818, PBLUC_HILL_SLOPE 9.43, PBLUC_R_SQUARED 0.518, read-out: LUCIFERASE INFECTION ASSAY - IC50): 2.98 µM
CCOc1cc(/C=C/c2nc3cc(Cl)ccc3o2)ccc1OCC(=O)N(C(C)C)C(C)C	> 10	–	IC50 (PBLUC_HILL_SLOPE 2.25, PBLUC_R_SQUARED 0.0279, read-out: LUCIFERASE INFECTION ASSAY - IC50): > 10 µM
COc1ccc(-c2cc3ncc(-c4ccccc4)c(N)n3n2)cc1	4.1	–	IC50 (PBLUC_HILL_SLOPE 17.3, PBLUC_R_SQUARED 0.589, read-out: LUCIFERASE INFECTION ASSAY - IC50): 3.61 µM
CS(=O)(=O)NC1CCN(c2nc(-c3ccccn3)nc3sc(-c4ccccc4)cc23)CC1	3.42	–	IC50 (PBLUC_HILL_SLOPE 90.2, PBLUC_R_SQUARED 0.429, read-out: LUCIFERASE INFECTION ASSAY - IC50): 3.34 µM
CC1CCCCC1Nc1ncnc2sccc12 (configuration not stated)	> 10	–	IC50 (HEPG2TOX_HILL_SLOPE 0.142, HEPG2TOX_R_SQUARED 0.36, PBLUC_HILL_SLOPE 4.81, PBLUC_R_SQUARED 0.31, read-out: LUCIFERASE INFECTION ASSAY - IC50): 9.81 µM
Cc1nccc(-c2ccc(NC(=O)c3cc(S(=O)(=O)NCc4ccccc4)ccc3C)cc2)n1	> 10	–	IC50 (PBLUC_HILL_SLOPE 8.64, PBLUC_R_SQUARED 0.681, read-out: LUCIFERASE INFECTION ASSAY - IC50): 8.33 µM
Cn1c(-c2ccccc2)c(C(=O)COc2ccc(-c3ccccc3)cc2)c2ccccc21	> 10	–	IC50 (HEPG2TOX_HILL_SLOPE 1.37, HEPG2TOX_R_SQUARED 0.968, PBLUC_HILL_SLOPE 1.98, PBLUC_R_SQUARED 0.384, read-out: LUCIFERASE INFECTION ASSAY - IC50): 4.87 µM
FC(F)Oc1ccc(-c2n[nH]cc2Sc2ccc(Cl)cc2)cc1	> 9.35	–	IC50 (FFLUC_HILL_SLOPE 44.1, FFLUC_R_SQUARED 0.44, PBLUC_HILL_SLOPE 8.27, PBLUC_R_SQUARED 0.292, read-out: LUCIFERASE INFECTION ASSAY - IC50): > 9.35 µM
Nc1c(NCCO)cc(NC2CCCCC2)c2c1C(=O)c1ccccc1C2=O	> 8.7	–	IC50 (FFLUC_HILL_SLOPE 12.9, FFLUC_R_SQUARED 0.405, PBLUC_HILL_SLOPE 2.49, PBLUC_R_SQUARED 0.563, read-out: LUCIFERASE INFECTION ASSAY - IC50): > 8.7 µM
Fc1ccc(CNc2ncnc3ccsc23)cc1	> 10	–	IC50 (HEPG2TOX_HILL_SLOPE 12.4, 1.24, HEPG2TOX_R_SQUARED 0.688, 0.830, PBLUC_HILL_SLOPE 1.50, 7.58, PBLUC_R_SQUARED 0.332, 0.354, read-out: LUCIFERASE INFECTION ASSAY - IC50): 6.82 µM
NS(=O)(=O)c1ccc(CCNc2nn3c(-c4ccc(F)c(Cl)c4)cnc3s2)cc1	> 7.3	–	IC50 (FFLUC_HILL_SLOPE 96, FFLUC_R_SQUARED 0.344, HEPG2TOX_HILL_SLOPE 2.59, HEPG2TOX_R_SQUARED 0.44, read-out: LUCIFERASE INFECTION ASSAY - IC50): > 7.3 µM
Cc1ccccc1N1CCN(C(=O)c2ccc(Cl)c(S(=O)(=O)NCc3ccccc3)c2)CC1	> 10	–	IC50 (HEPG2TOX_HILL_SLOPE 11.1, HEPG2TOX_R_SQUARED 0.861, PBLUC_HILL_SLOPE 8.51, PBLUC_R_SQUARED 0.104, read-out: LUCIFERASE INFECTION ASSAY - IC50): 9.26 µM
O=c1c(NNc2cccc(C(F)(F)F)c2)c(CSc2ccc(Cl)cc2)[nH]n1-c1ccccc1	> 6.72	> 6.72	–
Cc1oc(-c2ccccc2)nc1C(=O)N(C)CC(=O)Nc1ccc(N2CCOCC2)cc1	> 10	–	IC50 (FFLUC_HILL_SLOPE 0.476, FFLUC_R_SQUARED 0.109, HEPG2TOX_HILL_SLOPE 11.6, HEPG2TOX_R_SQUARED 0.88, read-out: LUCIFERASE INFECTION ASSAY - IC50): > 10 µM
O=C(NCc1ccccn1)c1nn(CCc2ccccc2)c2c1CN(Cc1ccc(F)cc1)CC2	> 7.03	–	IC50 (PBLUC_HILL_SLOPE 15.1, PBLUC_R_SQUARED 0.777, read-out: LUCIFERASE INFECTION ASSAY - IC50): 6.49 µM
